According to patent publication US12568972B2, “Pyridazinol compounds and derivatives, preparation methods, herbicidal compositions and applications thereof” (Qingdao Kingagroot Chemical Compound Co., Ltd., priority 2018, dated 2026):

Tests used:
Assay in all cases: Post-emergence test, weed control effect
Format in all cases: in vivo
Conditions in all cases: after 3 weeks
[1] = tested on: Amaranthus retroflexus
Procedure, shortened: (§1)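 Weeds sown in soil-filled pots and sprayed at 2-3 leaf stage (2-3 weeks after sowing) with compound in acetone/Tween-80/water plus 80% vegetable oil methyl ester synergist at 1500 g/ha. After 3 weeks in the greenhouse, fresh-weight growth inhibition scored on a 0-10 scale (10 = completely dead).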

[2] = tested on: Chenopodiaceae
Procedure, shortened: as §1

[3] = tested on: Rorippa indica
Procedure, shortened: as §1

[4] = tested on: Veronica polita
Procedure, shortened: as §1

COc1ccc(-c2nnc(C(F)(F)F)cc2O)cc1 [Compound 93]
10: weed control effect (activity level), Amaranthus retroflexus ([1]; dose 1000 g/ha) | weed control effect (activity level), Chenopodiaceae ([2]; dose 1000 g/ha) | weed control effect (activity level), Rorippa indica ([3]; dose 1000 g/ha) | weed control effect (activity level), Veronica polita ([4]; dose 1000 g/ha)

COc1ccccc1-c1nnc(C(F)(F)F)cc1O [Compound 94]
10: weed control effect (activity level), Amaranthus retroflexus ([1]; dose 1000 g/ha) | weed control effect (activity level), Chenopodiaceae ([2]; dose 1000 g/ha) | weed control effect (activity level), Rorippa indica ([3]; dose 1000 g/ha) | weed control effect (activity level), Veronica polita ([4]; dose 1000 g/ha)

CSc1cccc(-c2nnc(C(F)(F)F)cc2O)c1 [Compound 95]
10: weed control effect (activity level), Amaranthus retroflexus ([1]; dose 1000 g/ha) | weed control effect (activity level), Chenopodiaceae ([2]; dose 1000 g/ha) | weed control effect (activity level), Rorippa indica ([3]; dose 1000 g/ha) | weed control effect (activity level), Veronica polita ([4]; dose 1000 g/ha)

CC(C)Sc1ccc(-c2nnc(C(F)(F)F)cc2O)cc1 [Compound 96]
10: weed control effect (activity level), Amaranthus retroflexus ([1]; dose 1000 g/ha) | weed control effect (activity level), Chenopodiaceae ([2]; dose 1000 g/ha) | weed control effect (activity level), Rorippa indica ([3]; dose 1000 g/ha) | weed control effect (activity level), Veronica polita ([4]; dose 1000 g/ha)

CN(C)c1ccc(-c2nnc(C(F)(F)F)cc2O)cc1 [Compound 97]
10: weed control effect (activity level), Amaranthus retroflexus ([1]; dose 1000 g/ha) | weed control effect (activity level), Chenopodiaceae ([2]; dose 1000 g/ha) | weed control effect (activity level), Rorippa indica ([3]; dose 1000 g/ha) | weed control effect (activity level), Veronica polita ([4]; dose 1000 g/ha)

Oc1cc(C(F)(F)F)nnc1-c1ccc(C2CC2Cl)cc1 (stereo not shown) [Compound 111]
10: weed control effect (activity level), Amaranthus retroflexus ([1]; dose 1000 g/ha) | weed control effect (activity level), Chenopodiaceae ([2]; dose 1000 g/ha) | weed control effect (activity level), Rorippa indica ([3]; dose 1000 g/ha) | weed control effect (activity level), Veronica polita ([4]; dose 1000 g/ha)

CS(=O)(=O)c1ccc(-c2nnc(C(F)(F)F)cc2O)cc1 [Compound 114]
10: weed control effect (activity level), Amaranthus retroflexus ([1]; dose 1000 g/ha) | weed control effect (activity level), Chenopodiaceae ([2]; dose 1000 g/ha) | weed control effect (activity level), Rorippa indica ([3]; dose 1000 g/ha) | weed control effect (activity level), Veronica polita ([4]; dose 1000 g/ha)

Oc1cc(C(F)(F)F)nnc1-c1ccc(OC(F)(F)F)cc1 [Compound 128]
10: weed control effect (activity level), Amaranthus retroflexus ([1]; dose 1000 g/ha) | weed control effect (activity level), Chenopodiaceae ([2]; dose 1000 g/ha) | weed control effect (activity level), Rorippa indica ([3]; dose 1000 g/ha) | weed control effect (activity level), Veronica polita ([4]; dose 1000 g/ha)

CCc1cc(C(F)(F)F)cc(-c2nnc(C(F)(F)F)cc2O)c1C#N [Compound 163]
10: weed control effect (activity level), Amaranthus retroflexus ([1]; dose 2000 g/ha) | weed control effect (activity level), Chenopodiaceae ([2]; dose 2000 g/ha) | weed control effect (activity level), Rorippa indica ([3]; dose 2000 g/ha) | weed control effect (activity level), Veronica polita ([4]; dose 2000 g/ha)

Oc1cc(C(F)(F)F)nnc1-c1cc(OC(F)F)c(Cl)cc1Cl [Compound 165]
10: weed control effect (activity level), Amaranthus retroflexus ([1]; dose 2000 g/ha) | weed control effect (activity level), Chenopodiaceae ([2]; dose 2000 g/ha) | weed control effect (activity level), Rorippa indica ([3]; dose 2000 g/ha) | weed control effect (activity level), Veronica polita ([4]; dose 2000 g/ha)

C=Cc1cc(-c2nnc(C(F)(F)F)cc2O)c(F)cc1Cl [Compound 166]
10: weed control effect (activity level), Amaranthus retroflexus ([1]; dose 2000 g/ha) | weed control effect (activity level), Chenopodiaceae ([2]; dose 2000 g/ha) | weed control effect (activity level), Rorippa indica ([3]; dose 2000 g/ha) | weed control effect (activity level), Veronica polita ([4]; dose 2000 g/ha)

Oc1cc(C(F)(F)F)nnc1-c1cc(Cl)c(-c2ccccc2)c(Cl)c1 [Compound 168]
10: weed control effect (activity level), Amaranthus retroflexus ([1]; dose 2000 g/ha) | weed control effect (activity level), Chenopodiaceae ([2]; dose 2000 g/ha) | weed control effect (activity level), Rorippa indica ([3]; dose 2000 g/ha) | weed control effect (activity level), Veronica polita ([4]; dose 2000 g/ha)

Oc1cc(C(F)(F)F)nnc1-c1cc(F)cc(/C=C/Cl)c1 [Compound 169]
10: weed control effect (activity level), Amaranthus retroflexus ([1]; dose 2000 g/ha) | weed control effect (activity level), Chenopodiaceae ([2]; dose 2000 g/ha) | weed control effect (activity level), Rorippa indica ([3]; dose 2000 g/ha) | weed control effect (activity level), Veronica polita ([4]; dose 2000 g/ha)

C#Cc1ccc(-c2nnc(C(F)(F)F)cc2O)c(OC(C)=O)c1 [Compound 173]
10: weed control effect (activity level), Amaranthus retroflexus ([1]; dose 2000 g/ha) | weed control effect (activity level), Chenopodiaceae ([2]; dose 2000 g/ha) | weed control effect (activity level), Rorippa indica ([3]; dose 2000 g/ha) | weed control effect (activity level), Veronica polita ([4]; dose 2000 g/ha)

CCc1cc(-c2nnc(C(F)(F)F)cc2O)c(F)cc1[N+](=O)[O-] [Compound 179]
10: weed control effect (activity level), Amaranthus retroflexus ([1]; dose 2000 g/ha) | weed control effect (activity level), Chenopodiaceae ([2]; dose 2000 g/ha) | weed control effect (activity level), Rorippa indica ([3]; dose 2000 g/ha) | weed control effect (activity level), Veronica polita ([4]; dose 2000 g/ha)

Oc1cc(C(F)(F)F)nnc1-c1cnccc1Cl [Compound 204]
10: weed control effect (activity level), Amaranthus retroflexus ([1]; dose 2000 g/ha) | weed control effect (activity level), Chenopodiaceae ([2]; dose 2000 g/ha) | weed control effect (activity level), Rorippa indica ([3]; dose 2000 g/ha) | weed control effect (activity level), Veronica polita ([4]; dose 2000 g/ha)

Oc1cc(C(F)(F)F)nnc1-c1cccnc1Cl [Compound 205]
10: weed control effect (activity level), Amaranthus retroflexus ([1]; dose 2000 g/ha) | weed control effect (activity level), Chenopodiaceae ([2]; dose 2000 g/ha) | weed control effect (activity level), Rorippa indica ([3]; dose 2000 g/ha) | weed control effect (activity level), Veronica polita ([4]; dose 2000 g/ha)

Cc1cncc(-c2nnc(C(F)(F)F)cc2O)c1 [Compound 211]
10: weed control effect (activity level), Amaranthus retroflexus ([1]; dose 2000 g/ha) | weed control effect (activity level), Chenopodiaceae ([2]; dose 2000 g/ha) | weed control effect (activity level), Rorippa indica ([3]; dose 2000 g/ha) | weed control effect (activity level), Veronica polita ([4]; dose 2000 g/ha)

N#Cc1ccc(-c2nnc(C(F)(F)F)cc2O)cn1 [Compound 212]
10: weed control effect (activity level), Amaranthus retroflexus ([1]; dose 2000 g/ha) | weed control effect (activity level), Chenopodiaceae ([2]; dose 2000 g/ha) | weed control effect (activity level), Rorippa indica ([3]; dose 2000 g/ha) | weed control effect (activity level), Veronica polita ([4]; dose 2000 g/ha)

Oc1cc(C(F)(F)F)nnc1-c1cncc(C2CC2)c1 [Compound 214]
10: weed control effect (activity level), Amaranthus retroflexus ([1]; dose 2000 g/ha) | weed control effect (activity level), Chenopodiaceae ([2]; dose 2000 g/ha) | weed control effect (activity level), Rorippa indica ([3]; dose 2000 g/ha) | weed control effect (activity level), Veronica polita ([4]; dose 2000 g/ha)

Oc1cc(C(F)(F)F)nnc1-c1cc(Cl)nc(Cl)c1 [Compound 218]
10: weed control effect (activity level), Amaranthus retroflexus ([1]; dose 2000 g/ha) | weed control effect (activity level), Chenopodiaceae ([2]; dose 2000 g/ha) | weed control effect (activity level), Rorippa indica ([3]; dose 2000 g/ha) | weed control effect (activity level), Veronica polita ([4]; dose 2000 g/ha)

Cc1cc(-c2nnc(C(F)(F)F)cc2O)cnc1F [Compound 219]
10: weed control effect (activity level), Amaranthus retroflexus ([1]; dose 2000 g/ha) | weed control effect (activity level), Chenopodiaceae ([2]; dose 2000 g/ha) | weed control effect (activity level), Rorippa indica ([3]; dose 2000 g/ha) | weed control effect (activity level), Veronica polita ([4]; dose 2000 g/ha)

Cc1cc(F)ncc1-c1nnc(C(F)(F)F)cc1O [Compound 221]
10: weed control effect (activity level), Amaranthus retroflexus ([1]; dose 2000 g/ha) | weed control effect (activity level), Chenopodiaceae ([2]; dose 2000 g/ha) | weed control effect (activity level), Rorippa indica ([3]; dose 2000 g/ha) | weed control effect (activity level), Veronica polita ([4]; dose 2000 g/ha)

Oc1cc(C(F)(F)F)nnc1-c1ccnc(Cl)c1Cl [Compound 222]
10: weed control effect (activity level), Amaranthus retroflexus ([1]; dose 2000 g/ha) | weed control effect (activity level), Chenopodiaceae ([2]; dose 2000 g/ha) | weed control effect (activity level), Rorippa indica ([3]; dose 2000 g/ha) | weed control effect (activity level), Veronica polita ([4]; dose 2000 g/ha)

Cc1nc(F)ccc1-c1nnc(C(F)(F)F)cc1O [Compound 223]
10: weed control effect (activity level), Amaranthus retroflexus ([1]; dose 2000 g/ha) | weed control effect (activity level), Chenopodiaceae ([2]; dose 2000 g/ha) | weed control effect (activity level), Rorippa indica ([3]; dose 2000 g/ha) | weed control effect (activity level), Veronica polita ([4]; dose 2000 g/ha)

Oc1cc(C(F)(F)F)nnc1-c1cc(Cl)ncc1Cl [Compound 224]
10: weed control effect (activity level), Amaranthus retroflexus ([1]; dose 2000 g/ha) | weed control effect (activity level), Chenopodiaceae ([2]; dose 2000 g/ha) | weed control effect (activity level), Rorippa indica ([3]; dose 2000 g/ha) | weed control effect (activity level), Veronica polita ([4]; dose 2000 g/ha)

Cc1cc(-c2nnc(C(F)(F)F)cc2O)cnc1Cl [Compound 225]
10: weed control effect (activity level), Amaranthus retroflexus ([1]; dose 2000 g/ha) | weed control effect (activity level), Chenopodiaceae ([2]; dose 2000 g/ha) | weed control effect (activity level), Rorippa indica ([3]; dose 2000 g/ha) | weed control effect (activity level), Veronica polita ([4]; dose 2000 g/ha)

COc1ccc(-c2nnc(C(F)(F)F)cc2O)cn1 [Compound 226]
10: weed control effect (activity level), Amaranthus retroflexus ([1]; dose 2000 g/ha) | weed control effect (activity level), Chenopodiaceae ([2]; dose 2000 g/ha) | weed control effect (activity level), Rorippa indica ([3]; dose 2000 g/ha) | weed control effect (activity level), Veronica polita ([4]; dose 2000 g/ha)

COc1ncccc1-c1nnc(C(F)(F)F)cc1O [Compound 227]
10: weed control effect (activity level), Amaranthus retroflexus ([1]; dose 2000 g/ha) | weed control effect (activity level), Chenopodiaceae ([2]; dose 2000 g/ha) | weed control effect (activity level), Rorippa indica ([3]; dose 2000 g/ha) | weed control effect (activity level), Veronica polita ([4]; dose 2000 g/ha)

C#Cc1cc(OC2CC2)ncc1-c1nnc(C(F)(F)F)cc1O [Compound 231]
10: weed control effect (activity level), Amaranthus retroflexus ([1]; dose 2000 g/ha) | weed control effect (activity level), Chenopodiaceae ([2]; dose 2000 g/ha) | weed control effect (activity level), Rorippa indica ([3]; dose 2000 g/ha) | weed control effect (activity level), Veronica polita ([4]; dose 2000 g/ha)

CCSc1ccc(-c2nnc(C(F)(F)F)cc2O)cn1 [Compound 236]
10: weed control effect (activity level), Amaranthus retroflexus ([1]; dose 2000 g/ha) | weed control effect (activity level), Chenopodiaceae ([2]; dose 2000 g/ha) | weed control effect (activity level), Rorippa indica ([3]; dose 2000 g/ha) | weed control effect (activity level), Veronica polita ([4]; dose 2000 g/ha)
